Results taken from US20110059850A1, “PHYTOTOXIC HALOGENATED DERIVATIVES OF BENZOXAZINONES” (UNIVERSIDAD DE CÁDIZ, priority 2006, published 2011).

Columns and labels:
[1] = system: Lolium rigidum L. (ryegrass), common biotype and biotype multiresistant to herbicides SLR31; assay: phytotoxicity bioassay in Petri dishes, L. rigidum biotypes; type: in vivo; settings: common biotype versus multiresistant biotype SLR31
Procedure: (§1) The phytotoxicity bioassays for the compounds object of the invention are performed by means of the protocol of phytotoxicity bioassays in Petri dishes developed by the Grupo de Alelopatía de Cádiz (Cádiz Allelopathy Group) (see, for example: Macías, F. A.; Castellano, D.; Molinillo, J. M. G.; J. Agric. Food Chem. 2000, 48, 6, 2512-2521).
(§2) This assay attempts to imitate the natural conditions of the action of the products to be assayed on seeds of selected plant species, therefore the products are supplied in the form of aqueous solution in a Petri dish in which a certain number of seeds of each receiving species is introduced. The concentration range used allows observing the relationship between the phytotoxic activity of the product and its concentration. The dilutions assayed were 10^−3 M, 5·10^−4 M, 10^−4 M, 5·10^−5 M, 10^−5 M, 5·10^−6 M, 10^−6 M, 5·10^−7, 10^−7 and 5·10^−8. These solutions are buffered at pH=6 using to that end a 10 mM solution of 2-[N-morpholino]-ethanesulfonic acid (MES) the pH of which is adjusted to the desired value by means of adding a 1M solution of NaOH. The blank of this experiment is distilled and deionized water also buffered with MES but in which there is no product dissolved. […]

[2] = system: Lepidium sativum L. (watercress); assay: phytotoxicity bioassay in Petri dishes, radicle length; type: in vivo; settings: sigmoid type dose-response model, pH 6, 25° C., dark
Procedure: as §1, §2

| Structure (SMILES) | most affected L. rigidum biotype [1] | IC50 [2] [nM] |
| --- | --- | --- |
| O=C1COc2ccc(F)cc2N1O [Compound II, 6-fluoro-4-hydroxy-(2H)-1,4-benzoxazin-3(4H)-one] | the multiresistant biotype was the most affected | – |
| O=C1COc2ccc(Cl)cc2N1O [VII, 6-chloro-4-hydroxy-(2H)-1,4-benzoxazin-3(4H)-one] | the opposite trend | ~58 |
